Assay results as given in article PMC3511314, “Functional Characterization of Two M42 Aminopeptidases Erroneously Annotated as Cellulases” (PLoS ONE, 2012).

Columns and labels:
Type in all cases: biochemical
TmPep1050 [1] = molecular target: T1, TmPep1050 (Thermotoga maritima, UniProt Q9X0E0); test: specific activity of pNA hydrolysis at […] substrate
T1 construct: gene TM_1050; recombinant TmPep1050 (TM1050 ORF)
T1 sequence (Q9X0E0 1-331): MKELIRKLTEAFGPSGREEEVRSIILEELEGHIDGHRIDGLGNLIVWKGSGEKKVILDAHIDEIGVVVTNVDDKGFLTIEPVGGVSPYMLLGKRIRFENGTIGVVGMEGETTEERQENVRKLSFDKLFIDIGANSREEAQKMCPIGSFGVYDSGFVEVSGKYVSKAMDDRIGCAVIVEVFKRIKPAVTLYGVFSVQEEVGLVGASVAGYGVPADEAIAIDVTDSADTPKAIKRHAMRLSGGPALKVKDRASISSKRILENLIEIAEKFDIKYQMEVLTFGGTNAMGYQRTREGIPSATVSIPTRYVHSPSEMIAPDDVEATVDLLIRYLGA

CelM [2] = molecular target: T2, CelM (Acetivibrio thermocellus, UniProt P55742); test: specific activity of pNA hydrolysis at […] substrate
T2 construct: recombinant CelM bearing a C-terminal hexahistidine tag
T2 sequence (P55742 1-330): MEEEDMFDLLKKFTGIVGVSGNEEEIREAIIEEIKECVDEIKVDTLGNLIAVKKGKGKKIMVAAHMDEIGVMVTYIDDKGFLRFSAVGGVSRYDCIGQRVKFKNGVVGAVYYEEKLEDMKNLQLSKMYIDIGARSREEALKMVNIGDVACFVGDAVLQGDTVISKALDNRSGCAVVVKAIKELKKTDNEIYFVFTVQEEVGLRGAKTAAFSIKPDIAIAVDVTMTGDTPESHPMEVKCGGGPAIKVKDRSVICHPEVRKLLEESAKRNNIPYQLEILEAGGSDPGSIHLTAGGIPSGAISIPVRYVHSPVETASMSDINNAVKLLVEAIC

TmPep1050 [3] = molecular target: T1, TmPep1050; test: inhibition of leucine aminopeptidase activity of purified enzyme, apparent Ki
CelM [4] = molecular target: T2, CelM; test: as above

SMILES | TmPep1050 sp act (TmPep1050 [1]) [µmol min^−1 µmol^−1] | CelM sp act (CelM [2]) [µmol min^−1 µmol^−1] | Ki (TmPep1050 [3]) [nM] | Ki (CelM [4]) [nM]
CC(C)[C@H](N)C(=O)Nc1ccc([N+](=O)[O-])cc1 [L-Val-pNA] | 14.3±1.8 | 8.4±0.016 |  | 
CC(C)C[C@H](NC(=O)[C@@H](O)[C@H](N)Cc1ccccc1)C(=O)O [bestatin] |  |  | 432 ± 72 | 292 ± 66
